According to patent US9790551B2, “Use of TRPC6 mRNA levels in peripheral blood cells for early detection/diagnosis of senile dementia” (Aging Wise Biotechnology, Inc., priority 2013, dated 2017):

Columns and labels:
[1] = tested on: Aβ levels in primary cultured rat cortical neurons; test: Aβ ELISA of medium, primary cultured rat cortical neurons electrotransfected with siRNA; type: cell-based; conditions: Table 6, 7 days after electrotransfection, control siRNA = 1
Experimental: (§1) Upon collecting the culture medium of the cells, Aβ40 and Aβ42 levels were quantified with sandwich ELISA kit, respectively (purchased from Invitrogen). The forebrain of the mouse was dissected and separated, and then homogenized with GuHCL. After that, total Aβ was determined by ELISA. For determining TBST(Tris-Buffered Saline and 1% TritonX100, 1% SDS, 1% DOC) soluble and insoluble Aβ, upon TBST homogenation and centrifugation of the forebrain of the mouse, the supernatant was determined for TBST soluble Aβ by ELISA, and the precipitate was determined for TBST insoluble Aβ by ELISA upon another GuHCL homogenate.
Fetal rat was collected on the 17th day of SD rat pregnancy. Cortical neurons of the rat brains were separated, obtained, and electrotransfected by Nucleofector Device (Amaxa) with TRPC6 siRNA1 as set forth by SEQ ID NO.:12 (sense strand) and SEQ ID NO.:13 (anti-sense strand), TRPC6 siRNA2 as set forth by SEQ ID NO.:18 ([…], sense strand) and SEQ ID NO.:19 ([…], anti-sense strand), control siRNAs as set forth by SEQ ID NO.:14 (sense strand) and SEQ ID NO.:15 (anti-sense strand), and TRPC5 siRNA as set forth by SEQ ID NO.:20 ([…], sense strand) and SEQ ID NO.:21 ([…], anti-sense strand). 7 days after electrotransfection, Aβ levels in the medium were examined by ELISA.

[2] = tested on: γ-secretase cleavage of C99; test: Aβ ELISA, C0S7C99 cells treated with peptide; type: cell-based; conditions: Table 11; C0S7-C99 stable cells, 5 um peptide for 12 h; TAT = 1
Experimental: (§2) C99 is the C-terminal 99 amino acids of APP and the direct substrate of γ-secretase. C0S7C99 cells were passaged in 12-well plate till the density approached 100%. Each well was treated with 5 um peptide for 12 h and the Aβ levels in the culture medium was determined with ELISA.

[3] = tested on: Aβ levels in HEK293APP stable cells; test: Aβ ELISA, HEK293APP stable cells treated with TAT fusion peptides; type: cell-based
Experimental: as §1
In this Example, the second transmembrane domain (487-507aa, TM2) was selected to fuse with cell penetrating peptide TAT and the fusion peptide TAT-TM2 and the mutant thereof TAT-TM2mut were obtained. Their effects on Aβ levels were examined in HEK293APP stable cells.
6.1.2 The Effect of Different Doses of Fusion Protein TAT-TM2 on Aβ Levels in HEK293APP Stable Cells were Determined.
To search for shorter fragments which could inhibit Aβ levels, TM2 was divided into N- and C-terminals and fused with TAT respectively. The effects of TAT-TM2-N, TAT-TM2-C and TAT-TM2-C mutant on Aβ levels in HEK293APP cells was examined.

[4] = tested on: γ-secretase cleavage of C99; test: C99-GVP/UAS luciferase reporter system with peptide; type: cell-based; conditions: Table 11; luciferase activity; TAT = 1
Experimental: HEK293APP were transfected with C99-GVP/UASLuciferase, CTRL or TRPC6 plasmids, and were lysed 24 hours later. The luciferase activities were determined using the Luciferase assay system (purchased from Promega). β-gal was co-transfected to normalize the transfection efficiency.
as §2

[5] = tested on: γ-secretase cleavage of Notch; test: NICD immunoblotting, Notch-transfected cells treated with peptide; type: cell-based; conditions: 5 um peptide for 12 hr
Experimental: Cells were passaged in 12-well plate till the density approached 80%, Each well was transfected with 1 ug Notch plasmid using Lipofectamine 2000. 24 hr later, cells were treated with 5 um peptide for 12 hr. The Notch protein expression was determined by immunoblotting. Wherein, NICD (notch intracellular domain) was the intracellular fragment produced by γ-secretase cleavage of NotchΔE-myc, reflecting the level of γ-secretase cleavage of Notch.

[6] = tested on: Aβ levels in primary cultured cortical neurons; test: Aβ levels in primary cultured cortical neurons treated with TAT-TM2; type: cell-based
Experimental: as §1
6.1.3 The Effect of the Fusion Peptide TAT-TM2 on Aβ Levels in Primary Cultured Cortical Neurons was Determined and the Results were Shown in FIG. 9c: […]

[7] = tested on: Aβ levels in APP/PS1 mice; test: Brain Aβ levels in APP/PS1 mice after intraperitoneal injection of peptide; type: in vivo; conditions: intraperitoneally injected, brain tissue 3 hours later
Experimental: 6. Construction of APP/PS1 AD Mouse Models • a) APP/PS1 mice (with B6C3 background) were purchased from Jackson laboratory (#004462). • b) Construction of TRPC6 transgenic mouse
as §1
TAT or TAT-TM2 was intraperitoneally injected into APP/PS1 mice, and brain tissue samples were prepared 3 hours later and the Aβ levels were determined: general method 8 (n=8)

TRPC6 mRNA [8] = test: TRPC6 mRNA in rat neurons after APOE-containing culture medium supernatant; type: cell-based; conditions: rat neurons cultured in vitro for 8 days, after 2 hr
Experimental: (§3) The culture medium supernatant containing different APOE isoforms were added into rat neurons cultured in vitro for 8 days. The mRNA levels of TRPC6 and TRPC5 were detected after 2 hr (mean±SE, n=8).

TRPC5 mRNA [9] = test: TRPC5 mRNA in rat neurons after APOE-containing culture medium supernatant; type: cell-based; conditions: rat neurons cultured in vitro for 8 days, after 2 hr
Experimental: as §3

TRPC6 mRNA [10] = test: TRPC6 mRNA in Jurkat cells after APOE-containing culture medium; type: cell-based, human; conditions: after 5 hr
Experimental: (§4) The culture medium containing different APOE isoforms were added into the Jurkat cells (human T cell line from peripheral blood). The mRNA levels of TRPC6 and TRPC5 were detected after 5 hr (mean±SE, n=5).

TRPC5 mRNA [11] = test: TRPC5 mRNA in Jurkat cells after APOE-containing culture medium; type: cell-based, human; conditions: after 5 hr
Experimental: as §4

TRPC6 mRNA [12] = type: cell-based
γ-secretase = conditions: phase 3 clinical trial, cited from earlier work
[13] = Table 5, HEK293APP stable cells, 2 uM, TAT = 1
[14] = Table 5, HEK293APP stable cells, 5 uM, TAT = 1
[15] = Table 5, HEK293APP stable cells, 10 uM, TAT = 1
[16] = Table 8, HEK293APP stable cells, TAT = 1
[17] = Table 5, HEK293APP stable cells, TAT control line, concentration not given
[18] = Table 9, TAT-TM2 variants, HEK293APP cells, TAT = 1

Q: Which Aβ40 [1] does the source give for “Control siRNA: control siRNAs, SEQ ID NO.:14 (sense strand) and SEQ ID NO.:15 (anti-sense strand) (sense GCACACCGAAGGAUAUUCUTT; antisense AGAAUAUCCUUCGGUGUGCTT; chemistry not given here)” here?
A: 1

Q: And the Aβ42 [1]?
A: 1

Q: For “TAT-TM2: fusion peptide of TRPC6 second transmembrane domain (487-507aa) and TAT, SEQ ID NO.:17, TSCFSWMEMLIISWVIGMIWAGRKKRRQRRRC (fusion peptide)”, which Aβ40 [2] is on record?
A: 0.39 ± 0.11

Q: What about the Aβ42 [2] of the same compound?
A: 0.58 ± 0.04

Q: And the Aβ40 [3, 13]?
A: 0.6825 ± 0.0498

Q: What about the Aβ42 [3, 13] of the same compound?
A: 0.6244 ± 0.03189

Q: What about the Aβ40 [3, 14] of the same compound?
A: 0.4863 ± 0.05919

Q: And the Aβ42 [3, 14]?
A: 0.3255 ± 0.02046

Q: And the Aβ40 [3, 15]?
A: 0.2481 ± 0.0763

Q: And the Aβ42 [3, 15]?
A: 0.2214 ± 0.01597

Q: What about the Aβ40 [3, 16] of the same compound?
A: 0.39 ± 0.03

Q: What about the Aβ42 [3, 16] of the same compound?
A: 0.40 ± 0.06

Q: What about the “C99-GVP/UAS luciferase reporter system” value [4] of the same compound?
A: 0.82 ± 0.02

Q: What about the “NICD level (γ-secretase cleavage of NotchΔE-myc)” value [5] of the same compound?
A: did not affect NICD level

Q: What about the “Aβ40, of the control group” value [6] of the same compound?
A: 83%

Q: And the “Aβ42, of the control group” value [6]?
A: 68%

Q: What about the Aβ40 [7] of the same compound?
A: 91.12 ± 43.56 pg/mg

Q: What about the Aβ42 [7] of the same compound?
A: 277.40 ± 124.10 pg/mg

Q: With “APOE4: culture medium supernatant containing APOE4 isoform” as the compound, how does the “TRPC6 mRNA levels” value (TRPC6 mRNA [8]) read?
A: could not affect the TRPC6 mRNA levels

Q: What about the “TRPC5 mRNA levels” value (TRPC5 mRNA [9]) of the same compound?
A: could not affect the TRPC5 mRNA levels

Q: What about the “TRPC6 mRNA levels” value (TRPC6 mRNA [10]) of the same compound?
A: could not affect TRPC6 mRNA levels

Q: What about the “TRPC5 mRNA levels” value (TRPC5 mRNA [11]) of the same compound?
A: could not affect TRPC5 mRNA levels

Q: Which results are given for “TRPC5 siRNA: TRPC5 siRNA, SEQ ID NO.:20 AACGCCUUCUCCACGCUCUUU and SEQ ID NO.:21 AAAGAGCGUGGAGAAGGCGUU (listed as RNA, chemistry not given here)”?
A: Aβ40 [1]: 0.96 ± 0.09; Aβ42 [1]: 1.03 ± 0.02

Q: For [Cl-].[Cl-].[Co+2] [CoCl2], which “TRPC6 expression (mRNA)” value (TRPC6 mRNA [12]) is on record?
A: could upregulate TRPC6 expression

Q: Which adverse gastrointestinal reaction (γ-secretase; AD patients) does the source give for CC(C)[C@H](O)C(=O)N[C@@H](C)C(=O)N[C@@H]1C(=O)N(C)CCc2ccccc21 [Semagacestat] here?
A: increased

Q: What about the “risk of skin cancer” value (γ-secretase; AD patients) of the same compound?
A: increased

Q: And the “cognitive function of the AD patients” value (γ-secretase)?
A: declined

Q: With “TRPC6 siRNA-1: TRPC6 siRNA, SEQ ID NO.:12 (sense strand) and SEQ ID NO.:13 (anti-sense strand) (sense CGGUGGUCAUCAACUACAATT; antisense UUGUAGUUGAUGACCACCGTT; chemistry not given here)” as the compound, how does the Aβ40 [1] read?
A: 1.49 ± 0.16

Q: And the Aβ42 [1]?
A: 1.89 ± 0.21

Q: With “TRPC6 siRNA-2: TRPC6 siRNA, SEQ ID NO.:18 GCUUGACUUUGGAAUGUUATT and SEQ ID NO.:19 UAACAUUCCAAAGUCAAGCTT (chemistry not given here)” as the compound, how does the Aβ40 [1] read?
A: 1.33 ± 0.13

Q: What about the Aβ42 [1] of the same compound?
A: 1.63 ± 0.17

Q: Which Aβ40 [2] does the source give for “TAT (GRKKRRQRRRC; fusion peptide) [reference compound]” here?
A: 1

Q: And the Aβ42 [2]?
A: 1

Q: What about the Aβ40 [3, 17] of the same compound?
A: 1

Q: What about the Aβ42 [3, 17] of the same compound?
A: 1

Q: What about the Aβ40 [3, 16] of the same compound?
A: 1

Q: What about the Aβ42 [3, 16] of the same compound?
A: 1

Q: And the Aβ40 [3, 18]?
A: 1

Q: What about the Aβ42 [3, 18] of the same compound?
A: 1

Q: What about the “C99-GVP/UAS luciferase reporter system” value [4] of the same compound?
A: 1

Q: And the Aβ40 [7]?
A: 169.70 ± 61.78 pg/mg

Q: And the Aβ42 [7]?
A: 492.60 ± 157.70 pg/mg
